Series [1] is described as follows: Microsomal bioavailability (Table 2). It is filed as in vitro ADME. The conditions noted are these: read-out: Microsomal bioavailability F (%).
The target of series [2] is T1, ERα (Homo sapiens, UniProt P03372).
T1 sequence (P03372 1-595): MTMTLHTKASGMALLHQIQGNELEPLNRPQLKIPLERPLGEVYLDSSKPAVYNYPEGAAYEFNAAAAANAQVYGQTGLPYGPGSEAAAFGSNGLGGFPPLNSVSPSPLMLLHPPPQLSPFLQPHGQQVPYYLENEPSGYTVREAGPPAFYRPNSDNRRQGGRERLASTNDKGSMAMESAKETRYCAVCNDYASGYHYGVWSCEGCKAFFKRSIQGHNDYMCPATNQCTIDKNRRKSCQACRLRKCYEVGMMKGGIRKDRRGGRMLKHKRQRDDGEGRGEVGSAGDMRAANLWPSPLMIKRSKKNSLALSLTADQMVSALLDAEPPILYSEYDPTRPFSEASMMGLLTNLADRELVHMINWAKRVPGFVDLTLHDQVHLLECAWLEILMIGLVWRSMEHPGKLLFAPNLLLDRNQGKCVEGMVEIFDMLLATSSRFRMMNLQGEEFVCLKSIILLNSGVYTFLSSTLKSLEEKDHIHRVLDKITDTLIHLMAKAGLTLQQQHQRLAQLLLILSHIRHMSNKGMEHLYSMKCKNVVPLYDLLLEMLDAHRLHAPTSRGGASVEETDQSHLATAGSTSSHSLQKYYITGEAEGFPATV
Kind of series: Competitive 3H-estradiol binding assay, ERα. As to conditions: 1 nM 3H-estradiol, HEK293T cytosolic extract; read-out: Binding ERα pKi (converted). The method, then: (§1) HEK293T cells were transiently transfected for 48 hours with expression vectors encoding ERα or ERβ, before being serum starved for 4-6 hours. Cells were then harvested by scraping in ice-cold PBS and subsequently lysed using a cold buffer containing 10 mM Tris pH 7.4, 1 mM EDTA, 1 mM DTT before being subjected to polytron twice for 10 seconds. Cytosolic extracts were isolated by centrifugation at 15000 g for 30 minutes at 4° C. Competitive binding of the test compounds or the estradiol control was performed on 20 μL extract by overnight incubation at 4° C. in a total volume of 100 μL containing 1 nM ^3H-estradiol (Perkin Elmer, Boston, Mass.). The bound fraction was separated from the unbound one by the addition of 100 μL of Dextran coated charcoal, incubated for 10 minutes and subsequent centrifugation at 1000 rpm for 10 minutes. Samples (100 μL per sample) were then analyzed by liquid scintillation. Data was then analyzed using the curve fitting software GraphPad Prism.

Series [3] in a line: Metabolic stability in liver microsomes, human. It is filed as in vitro ADME. The conditions noted are these: low value = metabolically stable. As for the experimental part:
(§2) Also the metabolic stability in liver microsomes was tested for some compounds.
Background: Liver microsomes are a subcellular fraction often used to study metabolism.

A short description of series [4]: Metabolic stability in liver microsomes, rat. The format is in vitro ADME. The conditions noted are these: low value = metabolically stable. The method, then:
as §2

For series [5], the target named is T2, ERβ (Homo sapiens, UniProt Q92731). The experiment in a line: R-SAT functional assay, ERβ. On the set-up: expressed in transfected cells; host or cells: transient transfection. It is filed as cell-based. From the text:
(§3) R-SAT® (Receptor Selection and Amplification Technology) is a cell-based functional assay that allows one to monitor receptor-dependent proliferative responses and has been described elsewhere. […] This process is achieved by partial cellular transformation via loss of contact inhibition and growth factor dependency. Monitoring is achieved by transfecting the cells with a β-galactosidase reporter gene vector whose expression is under a constitutively active promoter. Briefly, NIH-3T3 fibroblasts were plated overnight in 96-wells plates in DMEM 10% calf serum (Hyclone) and grown to 60-70% confluency prior to transfection. Transient transfections were performed using Polyfect (Qiagen) according to manufacturer's instructions. Typically a transfection mix would consist of the receptor and the β-galactosidase expression vectors. Sixteen hours post-transfection, cells were incubated with different doses of ligand in DMEM containing 30% Ultraculture (Hyclone) and 0.4% calf serum (Hyclone) to generate a dose response curve. […] Plates were read using a microplate reader at 420 nm. Data from R-SAT® assays were fit to the equation: r=A+B(x/(x+c)), where A=minimum response, B=maximum response minus minimum response, c=EC50, r=response, and x=concentration of ligand. Curves were generated using the curve fitting softwares Excel Fit and GraphPad Prism (San Diego, Calif.). Luciferase Reporter Gene Assay

Series [6] addresses T1, ERα. Kind of series: Luciferase reporter gene assay (3*ERE) in HEK293 cells, ERα. The format is cell-based. The arrangement: expressed in transfected cells; host or cells: transient transfection. The conditions noted are these: 48 hours; for EC50: na = not active, read-out: Luciferase Erα pEC50 (converted). As for the experimental part:
(§4) HEK293 cells were grown to 70% confluency in DMEM containing 10% calf serum (Hyclone) prior to transfection. On the day of transfection (day 1), expression vectors for ERα or ERβ were cotransfected along a construct containing a synthetic 3*ERE upstream of the luciferase gene (Panomics), using Polyfect (Qiagen) per manufacturer's recommendations (ERE being estrogen response element). Sixteen hours post-transfection, cells were incubated in serum free DMEM. […] Cells extracts were then obtained by lyzing and the Luciferase activity measured, all of these steps performed using a commercially available kit (Promega).
A general note: Reporter assays use an easily measured gene product as a stand-in for the process of interest.

The target in series [7] is T2, ERβ. Kind of series: R-SAT functional assay, ERβ. It is filed as cell-based. The arrangement: expressed in transfected cells; host or cells: transient transfection. The source holds these as a separate data set.
For series [8], the target named is T2, ERβ. Kind of series: Luciferase reporter gene assay (3*ERE) in HEK293 cells, ERβ. It is filed as cell-based. The arrangement: expressed in transfected cells; host or cells: HEK293 cells, transient transfection. As to conditions: for Emax: read-out: Luciferase Erβ % Eff. As for the experimental part:
as §4

Series [9] concerns the target T2, ERβ. Kind of series: Competitive 3H-estradiol binding assay, ERβ. On the set-up: expressed in transfected cells; host or cells: HEK293 cells, transient transfection. The method, then: as §1, with “Cells” for “HEK293T cells were transiently transfected for 48 hours with expression vectors encoding ERα or ERβ, before being serum starved for 4-6 hours. Cells”
For series [10], the target named is T1, ERα. The experiment in a line: R-SAT functional assay, ERα. The format is cell-based. As to conditions: NIH-3T3 cells; for EC50: na = not active, read-out: R-SAT Erα pEC50 (converted). On the set-up: expressed in transfected cells; host or cells: NIH-3T3 fibroblasts, transient transfection.
Excerpt: as §3

The test system of series [11] is Taxol-induced allodynia. Kind of series: Taxol-induced neuropathy model. As to conditions: for effect on Taxol-induced allodynia: s.c. (gabapentin i.p.), Compound 8 at 10 and 30 mg/kg, 2 hours post-dose. It is filed as in vivo, male SD rats. The method, then: Neuropathy was induced in male SD rats by 4×1 mg/kg consecutive daily doses of taxol as described (Naguib M, Diaz P, Xu J J, Astruc-Diaz F, Craig S, Vivas-Mejia P, Brown D L. MDA7: a novel selective agonist for CB2 receptors that prevents allodynia in rat neuropathic pain models. Br J. Pharmacol. 2008 December; 155(7):1104-16). The presence of tactile allodynia (von Frey filament 50% response threshold of <5 g) was confirmed prior to inclusion in the study. Drugs were administered sub-cutaneously (s.c.) except gabapentin was given intra-peritoneally (i.p.). Doses are given in mg/kg. * p<0.05.
Allodynia was assessed by applying a light tactile stimulus (Von Frey hairs) to the plantar surface of the surgical paw until the 50% threshold was established. A positive response was recorded if the paw was sharply withdrawn. Eight VonFrey hairs were used (3.61, 3.84, 4.08, 4.31, 4.56, 4.74, 4.93 and 5.18). MPE (%) was calculated as [(Rdrug−Rveh)/(Rsham−Rveh)]*100% where Rveh was 4 and Rsham was 13. Repeat dosing (FIG. 10C) was performed by administering the indicated doses of Compound 8 once daily via the s.c. route. Efficacy was measured 2 hours post-dose.

The nature of series [12]: Unidirectional permeability across MatTek EpiOral buccal tissue. It is filed as in vitro ADME, human. The conditions noted are these: test compound 10 μM co-dosed with controls atenolol and caffeine 100 μM, DPBS pH 7.4, 37° C. As for the experimental part:
EpiOral→tissues plated in 24-well plates were obtained from MatTek Corporation (Ashland, Mass., USA). The assay buffer was Dulbeccos' Phosphate Buffered Saline (DPBS) without Ca & Mg chloride, pH 7.4. Each test compound was co-dosed with the two control compounds. Targeting dosing concentrations were 10 μM for each test compound and 100 μM for the two control compounds. Prior to the permeability assay onset, the tissues were preequilibrated in a pre-warmed EpiOral assay medium for one hour at 37° C. in a 5% CO2 incubator. The EpiOral assay medium was aspirated after the pre-equilibration, and the tissues were washed twice with the DPBS buffer. The receiver chambers were filled with 0.75 mL of the DPBS buffer, while the donor chambers received 0.4 mL of the dosing solutions. The assay plates were placed at 37° C. in a 5% CO2 incubator. The receiver samples (200 μL) were collected at 30, 60, and 120 minutes, and replaced with an equal volume of fresh pre-warmed receiver buffer (except for the last time point of 120 minutes). The donor sides were sampled at 0 and 120 minutes. The test compounds were then analyzed using LC-MS/MS.

Setting [13] is: NIH3T3, read-out: R-SAT Erβ % Eff.
Setting [14] is: NIH3T3, NIH-3T3 cells, read-out: R-SAT Erβ % Eff.

Where “and” joins values, the source holds several entries; their conditions need not be identical. Equal entries are not always repeated.

This is an account of results in patent publication US9061981B2, “Diphenyl substituted cyclohexane derivatives, useful as modulators of the estrogen receptors beta” (Acadia Pharmaceuticals Inc., priority 2011, dated 2015).

In general, microsomal CLint refers to a measure of how fast metabolising enzymes remove a compound, apart from limits set by blood flow. A lower microsomal CLint goes with greater metabolic stability.

T2 sequence (Q92731 whole entry, species assumed): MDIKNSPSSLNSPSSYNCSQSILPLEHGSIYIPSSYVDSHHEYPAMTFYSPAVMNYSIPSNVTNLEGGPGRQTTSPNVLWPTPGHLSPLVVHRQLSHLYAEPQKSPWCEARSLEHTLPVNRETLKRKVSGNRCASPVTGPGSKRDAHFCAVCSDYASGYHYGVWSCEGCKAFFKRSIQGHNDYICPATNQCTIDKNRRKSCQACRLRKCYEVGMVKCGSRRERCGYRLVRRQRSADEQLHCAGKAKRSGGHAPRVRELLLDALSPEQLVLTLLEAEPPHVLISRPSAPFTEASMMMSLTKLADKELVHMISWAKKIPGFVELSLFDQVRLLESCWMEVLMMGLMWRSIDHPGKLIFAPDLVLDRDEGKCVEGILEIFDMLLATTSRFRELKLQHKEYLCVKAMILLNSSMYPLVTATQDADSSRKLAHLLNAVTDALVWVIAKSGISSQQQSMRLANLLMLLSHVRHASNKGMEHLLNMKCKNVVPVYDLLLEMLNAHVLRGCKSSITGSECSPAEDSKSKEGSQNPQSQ

Take `COc1ccc(C2(c3ccccc3F)CCC(F)(F)CC2)cc1` [Compound 9, 1-(4,4-Difluoro-1-(4-methoxyphenyl)cyclohexyl)-2-fluorobenzene]: the Microsomal bioavailability (predicted from microsomes) in series [1] was 19.6%.

Regarding `Oc1ccc(C2(c3ccccc3F)CCC(F)(F)CC2)cc1F` [Compound 10, 4-(4,4-Difluoro-1-(2-fluorophenyl)cyclohexyl)-2-fluorophenol], the Ki is 251 nM in [2] and 5.01 nM in [9]. The results for the intrinsic clearance (microsomal CLint) in series [3] and in series [4] were 11 µL/min/mg and 95 µL/min/mg, respectively. The Emax was determined as 57% in series [5] (setting [13]) and 55% in [8] (HEK293, 48 h). Besides, the “Luciferase Erα % Eff” value in series [6] is reported as 2%. Moreover, the EC50 in series [7] is 2.51 nM; in series [8] it was 2 nM; in series [10] it was 1000 nM. Also, in series [10], the “R-SAT Erα % Eff” value came out at 100%.

As for `Oc1ccc(C2(c3ccccc3Cl)CCC(F)(F)CC2)cc1` [Compound 12], the Ki in series [2] is 100 nM; in [9], 3.98 nM. In series [4], this compound had a microsomal CLint of 147 µL/min/mg. Besides, the Emax is 42% in [5] (setting [14]) and 74% in [8] (HEK293 cells, 48 hours). Further, the “Luciferase Erα % Eff” value in series [6] was 30%. The figures for the EC50 in series [7] and in series [8] were 3.16 nM and 0.631 nM, respectively. In series [10], the “R-SAT Erα % Eff” value is on record as 74%.

Regarding `Oc1ccc(C2(c3ccccc3Cl)CCC(F)(F)CC2)cc1F` [Compound 14], the Ki in series [2] is 50.1 nM; in series [9] it was 3.98 nM. Besides, the microsomal CLint in series [4] came out at 113 µL/min/mg. For the same compound, the Emax in [5] (setting [13]) came to 60%; in [8] (HEK293, 48 h), 52%. Moreover, the “Luciferase Erα % Eff” value in series [6] came out at 82%. For the same compound, the EC50 in [7] was 1.58 nM; in [8], 0.631 nM; in [10], 100 nM. In addition, the “R-SAT Erα % Eff” value in series [10] worked out at 145%.

For `Oc1ccc(C2(c3ccccc3F)CCCCC2)cc1` [Compound 152], the microsomal CLint amounted to 27 µL/min/mg in series [3] and 405 µL/min/mg in series [4]. Moreover, the Emax in [5] (setting [14]) came out at 69%; in [8] (HEK293 cells, 48 hours) it was 126%. Also, in series [6], the “Luciferase Erα % Eff” value amounted to 48%. The EC50 in series [6] was 3980 nM; in series [7], 12.6 nM; in series [8], 20 nM; in series [10] it was 1580 nM. In series [9], this compound had a Ki of 63.1 nM. Besides, the “R-SAT Erα % Eff” value in series [10] is 29%.

Take `Oc1ccc(C2(c3ccccc3Cl)CCCCC2)cc1` [Compound 558]: the Ki in [2] is 1000 nM; in series [9] it was 50.1 nM. For the same compound, in [1], the Microsomal bioavailability (predicted from microsomes) was 2%. In addition, the Emax in [5] (setting [14]) was found to be 73%; in [8] (HEK293 cells, 48 hours) it was 101%. For the same compound, in series [6], the “Luciferase Erα % Eff” value is 37%. In addition, the EC50 is 1580 nM in series [6], 6.31 nM in series [7], 2.51 nM in series [8] and 1260 nM in series [10]. Besides, in series [10], the “R-SAT Erα % Eff” value was 48%.

For `N#CC(Cc1ccc(O)cc1)c1ccc(O)cc1` (stereo not drawn) [DPN], the “effect on Taxol-induced allodynia” value in series [11] is recorded as “active”.

Regarding `Cn1c(=O)c2c(ncn2C)n(C)c1=O` [caffeine], the “apparent permeability coefficient (Papp) across MatTek EpiOral buccal tissues” value in series [12] was 27.5 ×10⁻⁶ cm/s and 22.3 ×10⁻⁶ cm/s.

For the compound `NCC1(CC(=O)O)CCCCC1` [gabapentin], the “maximum effect (MPE)” value in series [11] (gabapentin i.p.) is 39%. Moreover, in [11], the “effect on Taxol-induced allodynia” value is on record as “relatively ineffective”.
